Experimental data published in patent publication US6541463B1, “Inhibitors of type 5 and type 3 17β-hydroxysteroid dehydrogenase and methods for their use” (Endorecherche, Inc., priority 1998, dated 2003).
Like-named read-outs stand apart in the source and are kept apart here.

Assays:
[1] = molecular target: T1, human type 5 17β-hydroxysteroid dehydrogenase (Homo sapiens, UniProt P42330); experiment: Reversibility of human type 5 17β-HSD inhibitory activity (preincubation, wash); assay type: cell-based
T1 construct: screen again a human placental λgt11 cDNA to get the full length cDNA clone; expressed in transfected cells; host or cells: human embryonal kidney 293 cells (pCMV / pCMV-neo vector)
T1 sequence (P42330 1-323): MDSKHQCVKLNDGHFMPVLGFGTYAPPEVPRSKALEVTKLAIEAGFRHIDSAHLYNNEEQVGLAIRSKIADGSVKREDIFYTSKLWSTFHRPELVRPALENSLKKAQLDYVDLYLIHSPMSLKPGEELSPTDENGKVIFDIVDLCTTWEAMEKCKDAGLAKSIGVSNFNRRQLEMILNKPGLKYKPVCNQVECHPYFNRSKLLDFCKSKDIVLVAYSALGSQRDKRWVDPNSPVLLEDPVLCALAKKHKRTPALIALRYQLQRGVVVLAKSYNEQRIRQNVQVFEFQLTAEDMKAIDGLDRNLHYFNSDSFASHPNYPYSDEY
Protocol: In column 3, the reversibility of the inhibition of type 5 17β-hydroxysteroid dehydrogenase activity expressed in percentage of control is reported. The manner in which the reversibility is determined is described in “Efficacy of Preferred Inhibitors: V. Reversibility of Human Type 5 17β-HSD Inhibitory Activity”. Lower number is desirable. Blank means that a determination was not done.
Determination of activity was performed as described (Luu-The et al., Mol. Endocrionol. 4: 268-275, 1990, Lachance et al., J. Biol. Chem. 265: 20469-20475, 1990; Luu-The et al., DNA & Cell Biol. 14: 511-518, 1995). Briefly, 0.1 μM of the indicated ^14C-labeled substrate (Dupont Inc. (Canada), namely, DHEA, 4-androstene-3,17-dione (Δ4), in absence or presence of increasing concentration of preferred inhibitor of the invention, was added to freshly changed culture medium in a 6-well culture plate. After incubation for 1 h, the steroids were extracted twice with 2 ml of ether. The organic phase were pooled and evaporated to dryness. The steroids were solubilized in 50 μl of dichloromethane, applied to Silica gel 60 thin layer chromatography (TLC) plate (Merck, Darmstad, Germany) then separated by migration in the toluene-acetone (4:1) solvent system. […] Transfection could be also performed with HeLa, SW-13, 293, COS-1 cells, the preferred cell line is 293 cells.
The reversibility assay was performed as described above for the standard type 5 17β-HSD enzymatic assay, except that before adding the ^14C-labeled substrate, the cells were preincubated with 0.3 μM of the indicated inhibitor for 1 h, (or the indicated time interval), followed by two washes with phosphate saline buffer (PBS).

[2] = molecular target: T2, human type 3 3α-hydroxysteroid dehydrogenase (Homo sapiens, UniProt P52895); experiment: Enzymatic assay for type 3 3α-HSD; assay type: biochemical; settings: Table 4′; read-out: Inhibition Type 3 3α-HSD Activity IC50
T2 construct: expressed in transfected cells; host or cells: 293 cells, transient transfection
T2 sequence (P52895 1-323): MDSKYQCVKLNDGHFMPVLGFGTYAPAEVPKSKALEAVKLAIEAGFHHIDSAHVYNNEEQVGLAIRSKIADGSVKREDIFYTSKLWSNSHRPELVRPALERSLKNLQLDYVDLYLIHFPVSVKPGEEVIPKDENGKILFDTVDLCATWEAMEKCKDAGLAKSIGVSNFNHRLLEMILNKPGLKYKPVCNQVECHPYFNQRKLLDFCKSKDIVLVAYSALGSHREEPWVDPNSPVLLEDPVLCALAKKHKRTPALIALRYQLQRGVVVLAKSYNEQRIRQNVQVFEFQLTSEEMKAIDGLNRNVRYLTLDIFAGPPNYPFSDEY
Protocol: The manner in which IC50 was determined is described in “Efficacy of Preferred Inhibitors: VI. Enzymatic assay for types 1, 2, and 3 17β-HSD and types 1 and 3 3α-HSD”. […] numbers of IC50 are desirable. Blank means that a determination was not done. The % of inhibition at the concentration of 3.10^−6M determined in preliminary screening test is reported in square braquets.
Enzyme sources. 293 cells transiently transfected with expression vectors encoding types 1, 2 and 3 17β-HSD (Luu-The et al., J. Steroid Biochem. Molec. Biol., 55: 581-587, 1995), types 1 and 2 5α-reductase (Luu-The et al., J. Invest. Dermatol., 102: 221-226, 1994) and types 1 and 3 3α-HSD (Dufort et al. Biochem. Biophys. Res. Commun. 228: 474-479, 1996), using the calcium phosphate procedure (Kingston et al., In: Current Protocols in Molecular Biology. Edited by E. M. Ausbel, R. Brent, R. E. Kingston, D. D. Moore, J. G. Seidman, J. A. Smith, K. Struhl. John Wiley & Sons, New York, pp. 9.1.1-9.1.9, 1991; Luu-The et al., J. Invest. Dermatol., 102: 221-226, 1994). For assays using cell subfractions, cells were sonicated in 50 mM sodium phosphate buffer (pH 7.4), containing 20% glycerol and 1 mM EDTA and centrifuged at 10 000×g for 30 min before centrifugation for 100 000×g for 1 h to separate the mitochondrial and microsomal fractions, respectively. The cytosol fractions (100 000×g supernatant) was used to determine type 1 activity while the microsomal fraction (pellet at 100 000×g) was used for measurement of types 2 and 3 17β-HSD activities.
Incubation. The enzymatic reaction was carried out at 37° C. in 1 ml of 50 mM sodium phosphate buffer, pH 7.4, containing 20% glycerol, 1 mM EDTA, and 2 mM cofactors (NADPH or AND^+) for 1 h in the presence of 0.1 μM ^14C-labeled substrate: estrone and 4-dione for types 1 and […] 17β-HSD, respectively, testosterone for type 2 17β-HSD as well as types 1 and 2 5α-reductases, DHT for types 1 and 3 3α-HSD activities, and the indicated concentration of inhibitor.
Extraction of metabolites, migration on TLC and quantification were as described above for the assay of type 5 17β-HSD.

SMILES	Reversibility ((%) of control) [1] [%]	Reversibility ((%) of control) ([1]; Table 4′)	IC50 [2] [µM]
CCC[C@@H]1CC2C3C=CC4=CC(=O)CC[C@]4(C)C3CC[C@]2(C)C1=O (some centres unmarked) [EM-1097]	45		
CC1(C)CC[C@@]2(CCC3C4CCc5cc(F)ccc5C4CC[C@@]32C)OC1=O (some centres unmarked) [EM-1157-CS]		28 % of control	> 10
CC(C)C[C@@H]1CC2C3C=CC4=CC(=O)CC[C@]4(C)C3CC[C@]2(C)C1=O (some centres unmarked) [EM-1273-CS]	40		
COc1ccc(CC(=O)O[C@]2(C(C)=O)CCC3C4C=C(C)C5=CC(=O)C=C[C@]5(C)C4CC[C@@]32C)cc1 (some centres unmarked) [EM-1291]	27		
CC1(C)CCC2(CCC3C4CCc5cc(OS(C)(=O)=O)ccc5C4CCC32C)OC1=O (centres unmarked) [EM-1365-CS]		49 % of control	> 10
COCCOc1cc2c(cc1Cl)C1CCC3(C)C(CCC34CCC(C)(C)C(=O)O4)C1CC2 (centres unmarked) [EM-1371-CS]		40 % of control	
COc1c(Br)cc2c(c1Br)CCC1C2CCC2(C)C1CCC21CCC(C)(C)C(=O)O1 (centres unmarked) [EM-1385-CS]		60 % of control	
COc1ccc2c(c1)C(=O)CC1C3CCC4(CCC(C)(C)C(=O)O4)C3(C)CCC21O (centres unmarked) [EM-1386]		54 % of control	
CN(C)CCOc1ccc2c(c1)CCC1C2CCC2(C)C1CCC21CCC(C)(C)C(=O)O1 (centres unmarked) [EM-1389-CS]		40 % of control	
CC1(C)CCC2(CCC3C4CCc5cc(OCCN6CCCCC6)ccc5C4CCC32C)OC1=O [EM-1390-CS, 3-(N-piperidyl-ethyl)-1,3,5(10)-estratrien-17(R)-spiro-2′-(5′,5′-dimethyl-6′-oxo)-tetrahydropyran]		50 % of control	
CC1(C)CCC2(CCC3C4CCc5c(cc(Cl)c(O)c5Cl)C4CCC32C)OC1=O (centres unmarked) [EM-1391-CS]		49 % of control	
CC1(C)CCC2(CCC3C4CCc5c(cc(Cl)c(OS(C)(=O)=O)c5Cl)C4CCC32C)OC1=O (centres unmarked) [EM-1392-CS]		38 % of control	
COCCOc1cc2c(cc1F)C1CCC3(C)C(CCC34CCC(C)(C)C(=O)O4)C1CC2 (centres unmarked) [EM-1393-CS]		38 % of control	
COc1ccc2c(c1)C(=O)CC1C2CC[C@@]2(C)C1CC[C@@]21CCC(C)(C)C(=O)O1 (some centres unmarked) [EM-1394]		23 % of control	> 10
COCCOc1cc2c(cc1C#N)C1CC[C@@]3(C)C(CC[C@@]34CCC(C)(C)C(=O)O4)C1CC2 (some centres unmarked) [EM-1396]		28 % of control	> 10
CC1(C)CC[C@@]2(CCC3C4CCc5cc(C(=O)O)ccc5C4CC[C@@]32C)OC1=O (stereo partly drawn) [EM-1401, 3-Carboxy-1,3,5(10)-estratrien-17(R)-spiro-2′-(5′,5′-dimethyl-6′-oxo)tetrahydropyran]		31 % of control	> 10
COCCOc1cc2c(cc1C(=O)OC)C1CC[C@@]3(C)C(CC[C@@]34CCC(C)(C)C(=O)O4)C1CC2 (stereo partly drawn) [EM-1402-CS, 2-Carbomethoxy-3-(2″-methoxyethyloxy)-1,3,5(10)-estratrien 17(R)-spiro-2′-(5′,5′-dimethyl-6′-oxo)tetrahydropyran]		25 % of control	> 10
CC1(C)CC[C@@]2(CCC3C4CCc5cc(C(N)=O)ccc5C4CCC32C)OC1=O (some centres unmarked) [EM-1404]			> 10
COCCOc1cc2c(cc1C(=O)O)C1CCC3(C)C(CCC34CCC(C)(C)C(=O)O4)C1CC2 [EM-1405, 2-Carboxy-3-(2″-methoxyethyloxy)-1,3,5(10)-estratrien-17(R)-spiro-2′-(5′,5′-dimethyl-6′-oxo)tetrahydropyran]		53 % of control	
COc1cc2c(cc1C)C1CCC3(C)C(CCC34CCC(C)(C)C(=O)O4)C1CC2 (centres unmarked) [EM-1412-CS]		71 % of control	
COCCOc1cc2c(cc1C(=O)N(C)C)C1CCC3(C)C(CCC34CCC(C)(C)C(=O)O4)C1CC2 (centres unmarked) [EM-1413-CS]		37 % of control	
COCCOc1cc2c(cc1C(N)=O)C1CC[C@@]3(C)C(CC[C@@]34CCC(C)(C)C(=O)O4)C1CC2 (stereo partly drawn) [EM-1424, 2-Carbamoyl-3-(2″-methoxyethyloxy)-1,3,5(10)-estratrien 17(R)-spiro-2′-(5′,5′-dimethyl-6′-oxo)tetrahydropyran]		17 % of control	> 10
